Values joined by “and” are separate entries in the source; they are usually repeats but may differ in a detail not shown here. Equal values may be shown once.
Test: wn = mass fraction of the nth substance listed
Conditions: discharge crucible method; for mass density / viscosity: 101 kPa, Liquid

[Zn] [zinc] + [Ga]
Conditions	mass density	surface tension liquid-gas	viscosity
323 K, w1 = 0.036	6081 kg/m3	722.9 mN/m	1.576 mPa·s
373 K, w1 = 0.036	6049 kg/m3	719.2 mN/m	1.336 mPa·s
423 K, w1 = 0.036	6018 kg/m3	715.6 mN/m	1.139 mPa·s
423 K, w1 = 0.25	6205 kg/m3	733 mN/m	2.596 mPa·s
473 K, w1 = 0.036	5989 kg/m3	712 mN/m	1.018 mPa·s
473 K, w1 = 0.25	6175 kg/m3	728.9 mN/m	2.037 mPa·s
523 K, w1 = 0.036	5956 kg/m3	708.4 mN/m	0.924 mPa·s
523 K, w1 = 0.25	6146 kg/m3	723.5 mN/m	1.733 mPa·s
573 K, w1 = 0.036	5929 kg/m3	704.9 mN/m	0.845 mPa·s
573 K, w1 = 0.25	6115 kg/m3	718.9 mN/m	1.529 mPa·s
573 K, w1 = 0.5	6355 kg/m3	748.5 mN/m	2.861 mPa·s
623 K, w1 = 0.036	5896 kg/m3	701.2 mN/m	0.779 mPa·s
623 K, w1 = 0.25	6079 kg/m3	714.6 mN/m	1.375 mPa·s
623 K, w1 = 0.5	6323 kg/m3	739.8 mN/m	2.394 mPa·s
623 K, w1 = 0.75	6584 kg/m3	773.5 mN/m	3.588 mPa·s
673 K, w1 = 0.036	5866 kg/m3	697.7 mN/m	0.736 mPa·s
673 K, w1 = 0.25	6052 kg/m3	709.7 mN/m	1.261 mPa·s
673 K, w1 = 0.5	6302 kg/m3	733.3 mN/m	2.112 mPa·s
673 K, w1 = 0.75	6557 kg/m3	764.1 mN/m	3.019 mPa·s
673 K, w1 = 0.9	6721 kg/m3	792.3 mN/m	3.809 mPa·s
723 K, w1 = 0.036	5836 kg/m3	693.8 mN/m and 694.3 mN/m	0.709 mPa·s and 0.699 mPa·s
723 K, w1 = 0.25	6024 kg/m3 and 6025 kg/m3	705.2 mN/m and 705.5 mN/m	1.148 mPa·s and 1.159 mPa·s
723 K, w1 = 0.5	6277 kg/m3 and 6276 kg/m3	725.3 mN/m	1.875 mPa·s and 1.871 mPa·s
723 K, w1 = 0.75	6537 kg/m3 and 6536 kg/m3	753.4 mN/m and 754 mN/m	2.625 mPa·s
723 K, w1 = 0.9	6699 kg/m3 and 6700 kg/m3	780.5 mN/m and 780.4 mN/m	3.225 mPa·s and 3.241 mPa·s
723 K, w1 = 1	6831 kg/m3	812.1 mN/m	3.721 mPa·s
773 K, w1 = 0.036	5806 kg/m3	690.8 mN/m	0.662 mPa·s
773 K, w1 = 0.25	5998 kg/m3	700.4 mN/m	1.098 mPa·s
773 K, w1 = 0.5	6249 kg/m3	717.7 mN/m	1.693 mPa·s
773 K, w1 = 0.75	6512 kg/m3	744.6 mN/m	2.323 mPa·s
773 K, w1 = 0.9	6679 kg/m3	768.7 mN/m	2.813 mPa·s
823 K, w1 = 0.9	6657 kg/m3	755.5 mN/m	2.517 mPa·s

From the NIST ThermoML archive (doi:10.1016/j.fluid.2017.03.025)
